The structures appear in SMILES notation.

The conditions of the data set: pampa; pH 5.0; 30.0 min; 50.0 µM.
Broadly, the Papp is a coefficient for how fast a substance crosses the barrier. Higher therefore signals ready permeation. `Cc1onc(-c2ccc(F)cc2)c1COc1ccc(C(=O)N2CCS(=O)(=O)CC2)cn1`: the Papp stood at 291 ×10⁻⁶ cm/s.
Regarding `C[C@H]1CN(C(=O)Nc2ccc(F)cc2F)C[C@@H]1c1nc(-c2ccccc2)no1`, the apparent permeability coefficient (Papp) stood at 917 ×10⁻⁶ cm/s.
In the case of `Nc1ncc(S(=O)(=O)N2CCN(c3ccccc3)CC2)cn1`, the Papp turned out to be 6.73 ×10⁻⁶ cm/s.
For the compound `Cc1ccc(NC(=O)NCC2CCN(Cc3cccc(Cl)c3)CC2)cc1Cl`, the Papp is > 1000 ×10⁻⁶ cm/s.
Under `Cc1cc(C)cc(C(=O)Nc2ccc3c(N4CCCC4)ncnc3c2)c1` stands 506 ×10⁻⁶ cm/s.
In turn, `COc1ccc(OC)c(CNc2ncnc3onc(C)c23)c1` came in with an apparent permeability (Papp) of 250 ×10⁻⁶ cm/s.
Take `CN(C)CC/C=C1\c2ccccc2Sc2ccc(Cl)cc21`: the Papp stood at 531 ×10⁻⁶ cm/s.
`Cc1cccc(-n2ncc3c2CCCC3NC(=O)c2c(F)ccc(F)c2F)c1C` (stereo unspecified): the apparent permeability coefficient (Papp) worked out at 552 ×10⁻⁶ cm/s.
Compound `CN(Cc1ccc(/C=C/C(=O)NO)cc1)CC12CC3CC(CC(C3)C1)C2` had a Papp of 108 ×10⁻⁶ cm/s.
For the compound `CCCCOc1ccc(C(=O)N2CCC(c3n[nH]c(=O)n3-c3ccc(C)cc3)CC2)cc1`, the apparent permeability (Papp) is > 1000 ×10⁻⁶ cm/s.
In the case of `O=C1Nc2cc(Cl)ccc2Nc2cscc21` it was 63.3 ×10⁻⁶ cm/s; in that of `NC(=O)C1CCN(c2nccc(-c3ccc4c(c3)OCCO4)n2)CC1`, 191 ×10⁻⁶ cm/s.
In turn, `Cc1ccc(C(=O)NC2CCN(c3cnn(CC4CC4)c(=O)c3)CC2)cc1C` had a Papp of 498 ×10⁻⁶ cm/s.
Regarding `Cc1cc(CNC(=O)c2ccc3c(c2)n(CC2CC2)c(=O)n3C2CCCCC2)on1`, the Papp came out at 870 ×10⁻⁶ cm/s.
Compound `CC1=C[C@@H](CNCc2cccnc2)[C@H](C(C)C)C[C@H]1Cc1nnc(-c2ccc([N+](=O)[O-])cc2)o1` displayed a Papp of 984 ×10⁻⁶ cm/s. The Papp values of the last two compounds are within 1.5-fold of each other.
`CN(C)CCCn1cc(C2=C(c3c[nH]c4ccccc34)C(=O)NC2=O)c2ccccc21`: the apparent permeability (Papp) stood at 39.3 ×10⁻⁶ cm/s.
`COc1ccc(Cn2c(C(=O)O)c(CNCc3ccco3)c3ccc(C)cc32)cc1` registered an apparent permeability coefficient (Papp) of 618 ×10⁻⁶ cm/s. Against the preceding compound, the Papp is about 16-fold higher.
`Fc1cccc(CN2CCNc3cc(Nc4ccccc4)ncc3C2)c1` gave a Papp of 5.74 ×10⁻⁶ cm/s. This Papp lies about 110-fold lower than the previous one.
For `COc1cccc(CN2CCNc3cc(Nc4ccccc4)ncc3C2)c1`, the Papp came out at 187 ×10⁻⁶ cm/s. Against the preceding compound, the Papp is about 33-fold higher.
The compound `COc1ccccc1N1CCN(CCN(C(=O)c2ccc(F)cc2)c2ccccn2)CC1` displayed a Papp of 73 ×10⁻⁶ cm/s.
In the case of `COc1ccc(-c2ccc3ncc(Nc4cccnc4OC)n3n2)cn1` it was 758 ×10⁻⁶ cm/s; in that of `O=C(Nc1ccc(F)cc1F)c1cc(-c2ccc[nH]2)n[nH]1`, 166 ×10⁻⁶ cm/s; in that of `O=C(Nc1ccc2c(N3CCCCC3)ncnc2c1)c1cc(F)cc(F)c1`, 817 ×10⁻⁶ cm/s.
The compound `CCC(CC)c1cc([C@H]2CN3CC[C@H]2C[C@@H]3CNC(C)=O)nc(-c2ccncc2)n1` returned a Papp of 14.9 ×10⁻⁶ cm/s.
Under `CN(C)C(=O)NC1CCC(CCN2CCN(c3cccc(Cl)c3Cl)CC2)CC1` (stereo unspecified) stands 350 ×10⁻⁶ cm/s.
In the case of `CCC(Sc1nc2ccccc2c2nc(CCc3c(C)n[nH]c3C)nn12)C(=O)Nc1ccc(F)cc1` (stereo unspecified) it was 205 ×10⁻⁶ cm/s; in that of `O=c1[nH]c(N2CCOCC2)nc2c1CCN(Cc1ccc(Cl)cc1F)CC2`, 71.2 ×10⁻⁶ cm/s.
Under `CC(=O)N[C@H]1CN(C2CCN(c3ccc(F)cc3C)CC2)C[C@@H]1C1CC1` stands 144 ×10⁻⁶ cm/s.
For the compound `NC(=O)c1ccc(-c2ncc3cnc(-c4cccc(F)c4)cn23)cc1`, the Papp was found to be 135 ×10⁻⁶ cm/s.
Under `CCc1ccc(OC(C)C(=O)N2CCC(c3nc4ccccc4o3)CC2)cc1` (stereo unspecified) stands > 1000 ×10⁻⁶ cm/s; under `O=C(NCCCN1CCCC1=O)c1ccc(-c2ncc3cnc(-c4ccccc4)cn23)cc1`, 193 ×10⁻⁶ cm/s.
For the compound `CCN(CC)C(=O)N1c2ccccc2C=Cc2ccccc21`, the apparent permeability (Papp) is > 1000 ×10⁻⁶ cm/s.
`FC(F)(F)c1ccccc1-c1nc(NCc2ccc(-c3cccnc3)cc2)c2ccccc2n1`: the Papp was found to be 712 ×10⁻⁶ cm/s.
Under `COc1cccc(CNCc2cccn2-c2nnc(N3CCN(c4ccccc4)CC3)s2)c1` stands 924 ×10⁻⁶ cm/s; under `c1cc(-c2cc(-c3ccncc3)c3cncn3c2)c2[nH]ncc2c1`, 20.3 ×10⁻⁶ cm/s; under `COc1ccc(C(=O)N[C@@H]2CCC[C@@H]2C(=O)N2CCC(Cc3ccccc3)CC2)cc1`, > 1000 ×10⁻⁶ cm/s.
On to `C[C@H]1CN(C(=O)c2nn(C)c3ccccc23)C[C@@H]1c1nc(-c2cccnc2)no1`, for which the Papp was found to be 739 ×10⁻⁶ cm/s.
`COc1ccccc1C(=O)NC1CCCc2c1[nH]c1c(Cl)cccc21` (stereo unspecified) showed an apparent permeability coefficient (Papp) of 607 ×10⁻⁶ cm/s.
`Cc1ccc2oc3c(c(=O)c2c1)C(c1cccc(O)c1)N(CCCN1CCOCC1)C3=O` (stereo unspecified) registered a Papp of 2.62 ×10⁻⁶ cm/s.
Turning to `COc1ccc(CN2CCNc3cc(Nc4ccccc4)ncc3C2)cc1O`, the Papp is 3.07 ×10⁻⁶ cm/s.
Take `COc1ccc(-c2nc3sc(CCNC(=O)C(C)(C)C)c(C)n3n2)cc1`: the apparent permeability coefficient (Papp) was determined as 657 ×10⁻⁶ cm/s.
As to `CCOc1cc(-c2nccc3cc(OC)c(OC)cc23)cc(OCC)c1OCC`, the apparent permeability coefficient (Papp) is > 1000 ×10⁻⁶ cm/s.
`COc1ccc(-n2nc(C3CCCN([S+](=O)([O-])c4cccc(C(F)(F)F)c4)C3)[nH]c2=O)cc1` (stereo unspecified) yielded an apparent permeability (Papp) of 564 ×10⁻⁶ cm/s.
In the case of `COc1cccc(Nc2ncc(-c3cccc(N(C)C)c3)c3c2OCC3)c1` it was > 1000 ×10⁻⁶ cm/s; in that of `COc1cc(Cl)c(C)cc1NS(=O)(=O)c1c(C)nc2sccn2c1=O`, 802 ×10⁻⁶ cm/s; in that of `Cc1ccccc1C(=O)NC1CCN(c2ccc3nnc(C4CC4)n3n2)CC1`, 35 ×10⁻⁶ cm/s.
Take `CCN(CCCOc1ccc2c(Nc3cc(CC(=O)Nc4cccc(F)c4)[nH]n3)ncnc2c1)CCOP(=O)(O)O`: the Papp amounted to 3.64 ×10⁻⁶ cm/s.
Compound `CC(C)(N)C(=O)N[C@H](COCc1ccccc1)C(=O)N1CCC2(CC1)CN(S(C)(=O)=O)c1ccccc12` came in with a Papp of 27.5 ×10⁻⁶ cm/s.
`CCc1ccccc1Nc1ncnc2c1cnn2-c1ccc(Cl)cc1`: the Papp turned out to be 100 ×10⁻⁶ cm/s.
Turning to `COc1cc(NC(=O)c2nc3ccccc3n(C)c2=O)cc(OC)c1OC`, the Papp is 151 ×10⁻⁶ cm/s. Compared with the last compound, the Papp is about 1.5-fold higher.
In turn, `CC1=C(C(=O)Nc2nc3ccccc3s2)C(c2[nH]ncc2Cl)N=C(Nc2nc3ccccc3o2)N1` (stereo unspecified) showed a Papp of 15.6 ×10⁻⁶ cm/s.
On to `CS(=O)(=O)CCNCc1ccc(-c2ccc3ncnc(Nc4ccc(OCc5cccc(F)c5)c(Cl)c4)c3c2)o1`, for which the Papp turned out to be 69.7 ×10⁻⁶ cm/s.
As to `CNC(=O)C1CCN(C(=O)c2ccc(-c3ncc4cnc(-c5ccccc5)cn34)cc2)CC1`, the Papp was found to be 30.1 ×10⁻⁶ cm/s. Against the preceding compound, the Papp is about 2.3-fold lower.
As to `O=C(CCCCn1c(=O)[nH]c2ccsc2c1=O)N1CCN(c2cccc(Cl)c2)CC1`, the Papp worked out at 719 ×10⁻⁶ cm/s. This Papp is about 24-fold higher than that of the compound before.
Under `O=C(c1ccc2c(c1)OCO2)N1CCC(Cc2nc(-c3cnccn3)no2)CC1` stands 44 ×10⁻⁶ cm/s.
Under `CC1CCN(S(=O)(=O)c2ccc3c(ccc(=O)n3CC(=O)NCc3ccc(Cl)cc3)c2)CC1` stands 828 ×10⁻⁶ cm/s.
For the compound `CCOC(=O)c1ccc(N2C(=O)c3n[nH]c(-c4cccs4)c3C2c2ccc(Cl)cc2Cl)cc1` (stereo unspecified), the Papp is 316 ×10⁻⁶ cm/s. Against the preceding compound, the Papp is about 2.6-fold lower.
In the case of `O=C(O)Cc1ccc2oc(-c3ccc(NC(=O)/C=C/c4ccc(Br)cc4)c(F)c3)nc2c1` it was 405 ×10⁻⁶ cm/s.
Consider `COc1ccc(-n2nc(C3CCN(C(=O)c4ccccc4)CC3)[nH]c2=O)cc1`, for which the apparent permeability coefficient (Papp) turned out to be 250 ×10⁻⁶ cm/s.
`Cc1ccc(C(=O)N2CCc3sc(C(=O)NC(C)c4ccccc4)cc3C2)cc1` (stereo unspecified) returned a Papp of 425 ×10⁻⁶ cm/s. Compared with the last compound, the Papp is about 1.7-fold higher.
For the compound `CSc1nn(Cc2cccc(C)c2)c(N)c1S(=O)(=O)c1ccccc1`, the Papp worked out at 878 ×10⁻⁶ cm/s. Compared with the last compound, the Papp is about 2.1-fold higher.
Consider `Cc1nn2c(c1-c1ccccc1-c1ccccc1)N(CCC(C)C)CCC2`, for which the Papp came to 350 ×10⁻⁶ cm/s. This Papp is about 2.5-fold lower than that of the compound before.
In turn, `COc1ccc(-n2nc(C3CCCN(C(=O)Nc4ccccc4)C3)[nH]c2=O)cc1` (stereo unspecified) showed a Papp of 315 ×10⁻⁶ cm/s. This Papp and that of the compound before are within 1.5-fold of each other.
`COCCNC(=O)c1ccc(-c2ncc3cnc(-c4cccc(F)c4)cn23)cc1` had a Papp of 283 ×10⁻⁶ cm/s.
Consider `O=C(NC1CCCc2c1[nH]c1c(Cl)cccc21)c1ccc2c(c1)OCO2` (stereo unspecified), for which the apparent permeability coefficient (Papp) turned out to be 190 ×10⁻⁶ cm/s.
With `COc1ccccc1C(=O)Nc1nnc(SCc2cc(=O)c3ccccc3[nH]2)s1`, the Papp is 402 ×10⁻⁶ cm/s.

The values above are taken from PubChem BioAssay AID1645871.
